Measured values: PubChem BioAssay AID248 (DTP/NCI, 2004)
Values joined by “and” are separate entries in the source; they are usually repeats but may differ in a detail not shown here. Equal values may be shown once. Toxic doses and inconclusive results are not listed. Rule as the data show it: active = T/C of 150% or more; inactive = T/C below 125%.

Tested on: L1210 leukemia ip in BDF1 mice, survival T/C
Assay: NCI In Vivo Anticancer Drug Screen. Data for tumor model L1210 Leukemia (intraperitoneal) in B6D2F1 (BDF1) mice
Conditions: endpoint: mean survival time, higher = longer survival
How it was run: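 Mice bearing the transplanted tumor received compound or vehicle. Survival of the treated group was divided by that of the vehicle-treated control group to give the ratio.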

[1] = dose: 100.0 mg/kg/injection, schedule: Q04DX003 (ip), vehicle: saline
[2] = dose: 200.0 mg/kg/injection, schedule: Q04DX003 (ip), vehicle: saline
[3] = dose: 400.0 mg/kg/injection, schedule: Q04DX003 (ip), vehicle: saline
[4] = dose: 100.0 mg/kg/injection, schedule: Q01DX001 (ip), vehicle: saline
[5] = dose: 200.0 mg/kg/injection, schedule: Q01DX001 (ip), vehicle: saline
[6] = dose: 5.0 mg/kg/injection, schedule: Q01DX001 (ip), vehicle: saline
[7] = dose: 10.0 mg/kg/injection, schedule: Q01DX001 (ip), vehicle: saline
[8] = dose: 100.0 mg/kg/injection, schedule: Q04DX003 (ip), vehicle: Klucel (hydroxypropylcellulose) (HPC)
[9] = dose: 200.0 mg/kg/injection, schedule: Q04DX003 (ip), vehicle: Klucel (hydroxypropylcellulose) (HPC)
[10] = dose: 400.0 mg/kg/injection, schedule: Q04DX003 (ip), vehicle: Klucel (hydroxypropylcellulose) (HPC)
[11] = dose: 25.0 mg/kg/injection, schedule: Q01DX009 (ip), vehicle: saline
[12] = dose: 100.0 mg/kg/injection, schedule: Q01DX009 (ip), vehicle: saline
[13] = dose: 25.0 mg/kg/injection, schedule: Q04DX003 (ip), vehicle: saline
[14] = dose: 25.0 mg/kg/injection, schedule: Q01DX009 (ip), vehicle: saline with Tween-80
[15] = dose: 50.0 mg/kg/injection, schedule: Q01DX001 (ip), vehicle: Klucel (hydroxypropylcellulose) (HPC)
[16] = dose: 100.0 mg/kg/injection, schedule: Q01DX001 (ip), vehicle: Klucel (hydroxypropylcellulose) (HPC)
[17] = dose: 200.0 mg/kg/injection, schedule: Q01DX001 (ip), vehicle: Klucel (hydroxypropylcellulose) (HPC)

Measured: T/C

CN1CCCCC1C(O)CO (stereo not given)
inactive: [1] 103 % of control | [2] 102 % of control | [3] 100 % of control

COC(=O)C12CCc3cc(OC)ccc3C1=CC(=O)C2 (stereo not given)
inactive: dose: 100.0 mg/kg/injection, schedule: Q04DX003 (ip), vehicle: saline sonified 101 % of control | dose: 200.0 mg/kg/injection, schedule: Q04DX003 (ip), vehicle: saline sonified 95 % of control | dose: 400.0 mg/kg/injection, schedule: Q04DX003 (ip), vehicle: saline sonified 94 % of control

CN(C)Cc1cccc(C(F)(F)F)c1C(O)c1ccccc1 (stereo not given)
inactive: dose: 50.0 mg/kg/injection, schedule: Q01DX001 (ip), vehicle: saline 100 % of control | [4] 94 % of control | [5] 103 % of control | dose: 400.0 mg/kg/injection, schedule: Q01DX001 (ip), vehicle: saline 100 % of control

OC(c1ccccc1)C(O)c1ccccc1 (stereo not given)
inactive: [6] 103 % of control | [7] 100 % of control | dose: 12.5 mg/kg/injection, schedule: Q01DX009 (ip), vehicle: Klucel (hydroxypropylcellulose) (HPC) 93 % of control | dose: 20.0 mg/kg/injection, schedule: Q01DX001 (ip), vehicle: saline 97 % of control | dose: 25.0 mg/kg/injection, schedule: Q01DX009 (ip), vehicle: Klucel (hydroxypropylcellulose) (HPC) 92 % of control | dose: 40.0 mg/kg/injection, schedule: Q01DX001 (ip), vehicle: saline 92 % of control | dose: 50.0 mg/kg/injection, schedule: Q01DX009 (ip), vehicle: Klucel (hydroxypropylcellulose) (HPC) 93 % of control | dose: 80.0 mg/kg/injection, schedule: Q01DX001 (ip), vehicle: saline 98 % of control

O/N=C1/CCCC/C1=C/c1ccccc1Cl
inactive: dose: 100.0 mg/kg/injection, schedule: Q04DX003 (ip), vehicle: saline with Tween-80 92 % of control | dose: 200.0 mg/kg/injection, schedule: Q04DX003 (ip), vehicle: saline with Tween-80 100 % of control | dose: 400.0 mg/kg/injection, schedule: Q04DX003 (ip), vehicle: saline with Tween-80 100 % of control

O=C(OCCO)c1ccccc1O
inactive: dose: 75.0 mg/kg/injection, schedule: Q01DX009 (ip), vehicle: saline sonified 102 % of control | [1] 102 % of control | dose: 150.0 mg/kg/injection, schedule: Q01DX009 (ip), vehicle: saline sonified 116 % of control | [2] 98 % of control | dose: 300.0 mg/kg/injection, schedule: Q01DX009 (ip), vehicle: saline sonified 108 % of control | [3] 102 % of control

CC(C)CCC(O)c1cnc(OCc2ccccc2)nc1OCc1ccccc1 (stereo not given)
inactive: [8] 92 % of control | [9] 95 % of control | [10] 100 % of control

CCCCC(CCN(C)C)(CNC(=O)CN(CC)CC)c1cccc2ccccc12 (stereo not given)
inactive: [11] 91 % of control | dose: 50.0 mg/kg/injection, schedule: Q01DX009 (ip), vehicle: saline 91 % of control | [12] 90 % of control | [1] 100 % of control

C=C(Br)CN(C)C(C)=O
inactive: dose: 6.25 mg/kg/injection, schedule: Q01DX009 (ip), vehicle: saline 98 % of control | dose: 6.25 mg/kg/injection, schedule: Q04DX003 (ip), vehicle: saline 101 % of control | dose: 12.5 mg/kg/injection, schedule: Q01DX009 (ip), vehicle: saline 98 % of control | dose: 12.5 mg/kg/injection, schedule: Q04DX003 (ip), vehicle: saline 106 % of control | [11] 93 % of control | [13] 98 % of control

C[C@H](CCC[C@H](C)OS(=O)(=O)c1ccccc1)OS(=O)(=O)c1ccccc1
inactive: [14] 104 % of control and 112 % of control | dose: 50.0 mg/kg/injection, schedule: Q01DX009 (ip), vehicle: saline with Tween-80 107 % of control and 112 % of control (2×) | dose: 100.0 mg/kg/injection, schedule: Q01DX009 (ip), vehicle: saline with Tween-80 109 % of control | dose: 200.0 mg/kg/injection, schedule: Q01DX009 (ip), vehicle: saline with Tween-80 112 % of control (2×) and 117 % of control

N#Cc1c(F)c(F)c(C#N)c(F)c1F
inactive: dose: 1.25 mg/kg/injection, schedule: Q01DX009 (ip), vehicle: Klucel (hydroxypropylcellulose) (HPC) 97 % of control | dose: 2.5 mg/kg/injection, schedule: Q01DX009 (ip), vehicle: Klucel (hydroxypropylcellulose) (HPC) 95 % of control | [6] 98 % of control | dose: 5.0 mg/kg/injection, schedule: Q01DX009 (ip), vehicle: Klucel (hydroxypropylcellulose) (HPC) 103 % of control | [7] 102 % of control | dose: 10.0 mg/kg/injection, schedule: Q01DX009 (ip), vehicle: Klucel (hydroxypropylcellulose) (HPC) 104 % of control

CC(C)(C)C(=O)CC(=O)C(C)(C)C.CC(C)(C)C(=O)CC(=O)C(C)(C)C.[Cu]
inactive: dose: 75.0 mg/kg/injection, schedule: Q01DX001 (ip), vehicle: other 103 % of control | dose: 150.0 mg/kg/injection, schedule: Q01DX001 (ip), vehicle: other 94 % of control

CN1CCC(CN2c3ccccc3Sc3ccccc32)CC1
inactive: dose: 6.25 mg/kg/injection, schedule: Q01DX009 (ip), vehicle: saline with Tween-80 93 % of control | dose: 12.5 mg/kg/injection, schedule: Q01DX009 (ip), vehicle: saline with Tween-80 93 % of control | dose: 15.0 mg/kg/injection, schedule: Q01DX Z (ip), vehicle: methylcellulose (MC) 104 % of control | [14] 93 % of control | [13] 108 % of control | dose: 30.0 mg/kg/injection, schedule: Q01DX Z (ip), vehicle: methylcellulose (MC) 108 % of control | dose: 45.0 mg/kg/injection, schedule: Q01DX Z (ip), vehicle: methylcellulose (MC) 96 % of control | dose: 50.0 mg/kg/injection, schedule: Q04DX003 (ip), vehicle: saline 100 % of control and 109 % of control | [4] 103 % of control | [1] 97 % of control | [5] 102 % of control | [2] 106 % of control and 108 % of control | [3] 97 % of control

CC(=O)OCC(O)CO (stereo not given)
inactive: [12] 102 % of control | dose: 200.0 mg/kg/injection, schedule: Q01DX009 (ip), vehicle: saline 96 % of control | dose: 400.0 mg/kg/injection, schedule: Q01DX009 (ip), vehicle: saline 102 % of control

CCC(=O)N(c1ccccc1)C1/C(=C\c2ccccc2)N2CCC1CC2 (stereo not given)
inactive: [8] 97 % of control | [9] 95 % of control | [10] 95 % of control

Cc1ccn(-c2cc(NS(=O)(=O)c3ccccc3)c3ccccc3c2NS(=O)(=O)c2ccccc2)c(=O)c1
inactive: [15] 107 % of control | [16] 94 % of control | [17] 97 % of control

Cc1ccc(/C=C\C(=O)c2ccccc2)cc1
inactive: [8] 100 % of control | [9] 96 % of control | [10] 102 % of control

Cc1ccc(S(=O)(=O)NNc2c3ccccc3nc3ccc(Cl)cc23)cc1
inactive: dose: 100.0 mg/kg/injection, schedule: Q04DX002 (ip), vehicle: saline with Tween-80 101 % of control | dose: 200.0 mg/kg/injection, schedule: Q04DX002 (ip), vehicle: saline with Tween-80 97 % of control | dose: 400.0 mg/kg/injection, schedule: Q04DX002 (ip), vehicle: saline with Tween-80 97 % of control

O=C(O)c1cc(Br)c(-c2c(Br)cc(C(=O)O)cc2[N+](=O)[O-])c([N+](=O)[O-])c1
inactive: [15] 95 % of control | [16] 106 % of control | [17] 95 % of control

CC(C)=CCC/C(C)=C/CNc1ncnc2c1ncn2C1OC(CO)C(O)C1O (stereo not given)
inactive: dose: 100.0 mg/kg/injection, schedule: Q01DX005 (ip), vehicle: saline 95 % of control | dose: 200.0 mg/kg/injection, schedule: Q01DX005 (ip), vehicle: saline 94 % of control

N#CC1(c2ccccc2)OC1(c1ccccc1)c1ccccc1 (stereo not given)
inactive: dose: 100.0 mg/kg/injection, schedule: Q01DX009 (ip), vehicle: Klucel (hydroxypropylcellulose) (HPC) 89 % of control | dose: 100.0 mg/kg/injection, schedule: Q04DX002 (ip), vehicle: Klucel (hydroxypropylcellulose) (HPC) 88 % of control | dose: 200.0 mg/kg/injection, schedule: Q01DX009 (ip), vehicle: Klucel (hydroxypropylcellulose) (HPC) 91 % of control | dose: 200.0 mg/kg/injection, schedule: Q04DX002 (ip), vehicle: Klucel (hydroxypropylcellulose) (HPC) 92 % of control | dose: 400.0 mg/kg/injection, schedule: Q01DX009 (ip), vehicle: Klucel (hydroxypropylcellulose) (HPC) 88 % of control
